# Data published in US20210040428A1, “MICROFLUIDIC DEVICE AND METHOD FOR DETERMINING CELL ELECTRICAL BARRIER PROPERTIES” (University of Southampton, priority 2018, published 2021).
# Tested on: differentiated culture of primary bronchial human cells
# Assay: Barrier disruption at the air-liquid interface: epithelial barrier resistance Rc by impedance spectroscopy before and after EGTA stimulation
# Format: cell-based
# Conditions: paired t-test
# Description: Impedance spectra were measured before and after EGTA stimulation either submerged or at the air-liquid interface. The extrapolated values of the equivalent resistance Rc were compared with TER values.
# FIG. 17 is a bar chart of fitted resistance values, Rc, showing the disruption induced by the EGTA stimulation.
# Electrical impedance spectroscopy (EIS) measurements were performed using the two electrodes configuration of an Alpha-A impedance analyser (Novocontrol Technologies, Germany). A frequency sweep was performed between 100 Hz and 100 kHz, with an applied voltage of 0.05 V(rms). Prior to the EIS measurement, the medium in the apical compartment was replaced with different volumes (200 μl, 50 μl, 20 μl, 10 μl) of fresh medium at room-temperature. Each Transwell® support was placed on top of the planar electrodes only for the duration of the measurement (≈30 s). Trans-epithelial electrical resistance (TER) measurements were performed using chopstick electrodes connected to an EVOM2 Epithelial Volt-ohm-meter (World Precision Instruments).
# A custom script was developed in Matlab (© 2015 The MathWorks) to fit the complex electrical impedance data with the equivalent electric circuit model. The objective function to be minimized during the fitting was defined as: […]
# The absolute value of the impedance was used as the normalizing factor. […]
compound,measurement,setting,value
"O=C(O)CN(CCOCCOCCN(CC(=O)O)CC(=O)O)CC(=O)O [EGTA, ethylene glycol-bis(β-aminoethyl ether)-N,N,N′,N′-tetraacetic acid]","fitted resistance Rc of the epithelial barrier, change after stimulation compared to the control",air-liquid interface measurement,statistically significant (paired t-test) drop
same,"fitted resistance Rc of the epithelial barrier, change after stimulation compared to the control",submerged measurement,statistically significant (paired t-test) drop
